According to ChEMBL document CHEMBL1201862, “PubChem BioAssay data set” (2004):
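Where inhibition never reached the appropriate level, the endpoint shown equals the highest concentration tested. Otherwise, values were interpolated linearly from a five-concentration, 48-hour dose response in 96-well plates. GI50 marks 50% less growth.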 Active and inactive are the calls of the source. Cut-off read from the data, not from the text of the source: active = GI50 up to about 1.1 µM and inactive = higher.

Key:
Test in all cases: DTP human tumour cell line panel, 48 h
HOP-62 = tested on: HOP-62
M14 = tested on: M14
DU-145 = tested on: DU-145
COLO 205 = tested on: COLO 205
HCT-15 = tested on: HCT-15
SK-MEL-5 = tested on: SK-MEL-5
T47D = tested on: T47D
CAKI-1 = tested on: CAKI-1
OVCAR-5 = tested on: OVCAR-5
OVCAR-8 = tested on: OVCAR-8
HL-60 = tested on: HL-60
NCI-H23 = tested on: NCI-H23
SNB-75 = tested on: SNB-75
NCI-H460 = tested on: NCI-H460
IGROV-1 = tested on: IGROV-1
RXF 393 = tested on: RXF 393
UO-31 = tested on: UO-31
MDA-MB-231 = tested on: MDA-MB-231
SK-MEL-28 = tested on: SK-MEL-28

Row | Structure (SMILES) | GI50 (HOP-62) | GI50 (M14) | GI50 (DU-145) | GI50 (COLO 205) | GI50 (HCT-15) [µM] | GI50 (SK-MEL-5) | GI50 (T47D) | GI50 (CAKI-1) | GI50 (OVCAR-5) | GI50 (OVCAR-8) | GI50 (HL-60) | GI50 (NCI-H23) | GI50 (SNB-75) | GI50 (NCI-H460) | GI50 (IGROV-1) | GI50 (RXF 393) | GI50 (UO-31) | GI50 (MDA-MB-231) | GI50 (SK-MEL-28)
1 | NCC(O)CN.Oc1c(Cl)c(Cl)c(Cl)c(Cl)c1Cl | 16.2 µM (inactive) | 19.7 µM (inactive) | 31.6 µM (inactive) | 21 µM (inactive) | 18.2 | 14.4 µM (inactive) | 22.5 µM (inactive) | 31.1 µM (inactive) | 18 µM (inactive) | 20.2 µM (inactive) | 16 µM (inactive) | 16.9 µM (inactive) | 22.1 µM (inactive) | 18.7 µM (inactive) | 13.4 µM (inactive) | 27 µM (inactive) | 16.5 µM (inactive) | 20.2 µM (inactive) | 21.2 µM (inactive)
2 | CCCn1cnc2c(SCC(=O)O)nc(N)nc21 | > 100 µM (inactive) | > 100 µM (inactive) | > 100 µM (inactive) | > 100 µM (inactive) | > 100 | > 100 µM (inactive) | > 100 µM (inactive) | > 100 µM (inactive) | > 100 µM (inactive) | > 100 µM (inactive) | > 100 µM (inactive) | > 100 µM (inactive) | > 100 µM (inactive) | > 100 µM (inactive) | > 100 µM (inactive) | > 100 µM (inactive) | > 100 µM (inactive) | > 100 µM (inactive) | > 100 µM (inactive)
3 | O=C(OCC12CC3CC(CC(C3)C1)C2)c1ccc(NCc2cc(O)ccc2O)cc1 | 4.62 µM (inactive) | 1.96 µM (inactive) | 3.54 µM (inactive) | 0.681 µM (active) | 1.32 | 1.32 µM (inactive) | 0.473 µM (active) | 0.466 µM (active) | 2.1 µM (inactive) | 1.81 µM (inactive) | 0.145 µM (active) | 1.47 µM (inactive) | 1.81 µM (inactive) | 2.57 µM (inactive) | 0.131 µM (active) | 1.29 µM (inactive) | 0.671 µM (active) | 4.06 µM (inactive) | 1.54 µM (inactive)
4 | Cc1cccc(C(=O)O)c1CC1NCCC2c3ccccc3NC12 (stereo not drawn) | > 100 µM (inactive) | > 100 µM (inactive) | > 100 µM (inactive) | > 100 µM (inactive) | > 100 | > 100 µM (inactive) | > 100 µM (inactive) | > 100 µM (inactive) | > 100 µM (inactive) | > 100 µM (inactive) | > 100 µM (inactive) | > 100 µM (inactive) | > 100 µM (inactive) | > 100 µM (inactive) | > 100 µM (inactive) | > 100 µM (inactive) | > 100 µM (inactive) | > 100 µM (inactive) | > 100 µM (inactive)
5 | COc1cc(NCc2ccc3oc(=O)c(-c4ccccc4)nc3c2)cc(OC)c1OC | > 10 µM (inactive) | > 10 µM (inactive) | > 10 µM (inactive) | > 10 µM (inactive) | > 10 | > 10 µM (inactive) | > 10 µM (inactive) | > 10 µM (inactive) | > 10 µM (inactive) | > 10 µM (inactive) | > 10 µM (inactive) | > 10 µM (inactive) | > 10 µM (inactive) | > 10 µM (inactive) | > 10 µM (inactive) | > 10 µM (inactive) | > 10 µM (inactive) | > 10 µM (inactive) | > 10 µM (inactive)
6 | COc1cc(C[C@H]2C(=O)OC[C@@H]2Cc2ccc(OC)c(OC)c2)cc(OC)c1 | > 100 µM (inactive) | 93.8 µM (inactive) | > 100 µM (inactive) | 89.3 µM (inactive) | 53.3 | 16.8 µM (inactive) | 35.2 µM (inactive) | > 100 µM (inactive) | > 100 µM (inactive) | 98.4 µM (inactive) | 37.2 µM (inactive) | 39.4 µM (inactive) | 40.6 µM (inactive) | > 100 µM (inactive) | > 100 µM (inactive) | > 100 µM (inactive) | 39.6 µM (inactive) | 93.3 µM (inactive) | 62.2 µM (inactive)
7 | N#CC12C(=O)N3C(=NC(c4ccccc4)NC3c3ccccc3)C1(C#N)C(c1ccccc1)NC1=C2CCC1 (stereo not drawn) | > 100 µM (inactive) | > 100 µM (inactive) | > 100 µM (inactive) | > 100 µM (inactive) | > 100 | > 100 µM (inactive) | > 100 µM (inactive) | > 100 µM (inactive) | > 100 µM (inactive) | > 100 µM (inactive) | > 100 µM (inactive) | > 100 µM (inactive) | > 100 µM (inactive) | > 100 µM (inactive) | > 100 µM (inactive) | > 100 µM (inactive) | > 100 µM (inactive) | > 100 µM (inactive) | > 100 µM (inactive)
